Experimental data reported in ChEMBL document CHEMBL6114980, “Single or double lipid-modified ultra-short antimicrobial peptides for treating infections caused by resistant bacteria” (Eur J Med Chem, 2025).
In brackets after ≈: the same amount, converted by molar mass. Activity calls are given as the source filed them. No cut-off for these calls is given here. Peptide text beside a SMILES is read from it. * marks the point of attachment. Lauroyl = CCCCCCCCCCCC(=O)*; Octanoyl = CCCCCCCC(=O)*

Tests used:
Staphylococcus aureus [1] = assay: Antibacterial activity against methicillin resistant Staphylococcus aureus infected in male BALB/c mouse model of skin wound infection assessed as appearance of intact structure of stratum corneum at 2 mg/kg, ip measured after 10 days post infection; format: functional, organism-based; conditions: time 10.0 day
Staphylococcus aureus [2] = assay: Synergistic antibacterial activity against Staphylococcus aureus 25923 measured after 18 hrs in presence of polymyxin B by absorbance based analysis; format: functional, organism-based
Staphylococcus aureus [3] = assay: Antibacterial activity against Staphylococcus aureus assessed as reduction in survival bacterial growth in presence of NaCl measured after 18 to 24 hrs (reference value: 4 microM); format: functional; conditions: time 18-24 hrs
Escherichia coli [4] = assay: Antibacterial activity against Escherichia coli assessed as reduction in survival bacterial growth by measuring fold change in presence of ZnCl2 measured after 18 to 24 hrs; format: functional; conditions: time 18-24 hrs
Klebsiella pneumoniae [5] = assay: Antibacterial activity against Klebsiella pneumoniae ATCC 700603 assessed as reduction in bacterial growth incubated for 18 to 24 hrs by broth microdilution method; format: functional; conditions: time 18-24 hrs
Klebsiella pneumoniae [6] = assay: Induction of morphological changes in Klebsiella pneumoniae assessed as cell adhesion at 2 times MIC measured after 120 mins by SEM analysis; format: functional, organism-based
Acinetobacter baumannii = assay: Antibacterial activity against Acinetobacter baumannii 5444 assessed as reduction in bacterial growth incubated for 18 to 24 hrs by broth microdilution method; format: functional; conditions: time 18-24 hrs
Staphylococcus aureus [7] = assay: Synergistic antibacterial activity against methicillin-resistant Staphylococcus aureus measured after 18 hrs in presence of cephalothin by absorbance based analysis; format: functional, organism-based
Staphylococcus aureus [8] = assay: Synergistic antibacterial activity against Staphylococcus aureus 25923 measured after 18 hrs in presence of streptomycin by absorbance based analysis; format: functional, organism-based
Cell membrane [9] = assay: Induction of cytoplasmic membrane depolarization in Escherichia coli assessed as increase in fluorescence intensity at 4 times MIC measured for 10 mins by DiSC3-5 dye based fluorescence assay
[10] = Stability in mouse serum assessed as retention time measured after 1 hr by RP-HPLC analysis; format: ADME, cell-free
Staphylococcus aureus [11] = assay: Induction of morphological changes in Staphylococcus aureus assessed as cell aggregation at 2 times MIC measured after 30 mins by SEM analysis; format: functional, organism-based
Staphylococcus aureus [12] = assay: Synergistic antibacterial activity against Staphylococcus aureus 113 measured after 18 hrs in presence of streptomycin by absorbance based analysis; format: functional, organism-based
Klebsiella pneumoniae [13] = assay: Induction of morphological changes in Klebsiella pneumoniae assessed as cell aggregation at 2 times MIC measured after 120 mins by SEM analysis; format: functional, organism-based
Escherichia coli [14] = assay: Antibacterial activity against Escherichia coli assessed as reduction in survival bacterial growth in presence of FeCl3 measured after 18 to 24 hrs (reference value: 8 microM); format: functional; conditions: time 18-24 hrs
Escherichia coli [15] = assay: Bactericidal activity against Escherichia coli 25922 assessed as eradication of bacteria at 2 times MIC measured within 1 hr by time-kill assay; format: functional, organism-based
Klebsiella pneumoniae [16] = assay: Antibacterial activity against Klebsiella pneumoniae ATCC 700603 infected in male BALB/c mouse lung infection model assessed as reduction in number of inflammatory cells at 5 mg/kg, ip measured after 6 to 36 hrs; format: functional, organism-based; conditions: time 6-36 hrs
Staphylococcus aureus [17] = assay: Additive antibacterial activity against methicillin-resistant Staphylococcus aureus assessed as fractional inhibitory in presence of cephalothin by checker board assay; format: functional
Staphylococcus aureus [18] = assay: Synergistic antibacterial activity against methicillin-resistant Staphylococcus aureus measured after 18 hrs in presence of polymyxin B by absorbance based analysis; format: functional, organism-based
Escherichia coli [19] = assay: Antibacterial activity against Escherichia coli assessed as reduction in survival bacterial growth in presence of <=2 ug/ml chymotrypsin measured after1 hr by absorbance based analysis; format: functional, organism-based; conditions: time 1.0 hrs
Klebsiella pneumoniae [20] = assay: Induction of morphological changes in Klebsiella pneumoniae assessed as cell adhesion at 2 times MIC measured after 30 mins by SEM analysis; format: functional, organism-based
Klebsiella pneumoniae [21] = assay: Induction of morphological changes in Klebsiella pneumoniae assessed as cell aggregation at 2 times MIC measured after 30 mins by SEM analysis; format: functional, organism-based
Escherichia coli [22] = assay: Induction of cell membrane disruption in Escherichia coli assessed as PI uptake at 2 times MIC measured after 120 mins by PI staining based flow cytometry analysis (Rvb =<10 %); format: functional; conditions: 2 h
Klebsiella pneumoniae [23] = assay: Induction of morphological changes in Klebsiella pneumoniae assessed as cell contraction at 2 times MIC measured after 30 mins by SEM analysis; format: functional, organism-based
Staphylococcus aureus [24] = assay: Antibacterial activity against Staphylococcus aureus ATCC 25923 assessed as reduction in bacterial growth incubated for 18 to 24 hrs by broth microdilution method; format: functional; conditions: time 18-24 hrs
Staphylococcus aureus [25] = assay: Antibacterial activity against methicillin resistant Staphylococcus aureus infected in male BALB/c mouse model of skin wound infection assessed as reduction in wound area at 2 mg/kg, ip measured after 10 days post infection relative to control; format: functional; set-up: scale not given: the % may be the effect or the level left; conditions: time 10 day
Cell membrane [26] = assay: Induction of outer membrane permeabilization in Escherichia coli assessed as increase in fluorescence intensity at 2 to 4 times MIC measured for 10 mins by fluorescence based NPN uptake assay
Bacillus subtilis = assay: Antibacterial activity against Bacillus subtilis ATCC 23857 assessed as reduction in bacterial growth incubated for 18 to 24 hrs by broth microdilution method; format: functional; conditions: time 18-24 hrs
Staphylococcus aureus [27] = assay: Synergistic antibacterial activity against Staphylococcus aureus 113 measured after 18 hrs in presence of cephalothin by absorbance based analysis; format: functional, organism-based
Staphylococcus aureus [28] = assay: Synergistic antibacterial activity against methicillin-resistant Staphylococcus aureus assessed as fractional inhibitory in presence of polymyxin B by checker board assay; format: functional
[29] = Stability in mouse serum assessed as half life measured after 1 hr by HPLC analysis; format: ADME, cell-free
[30] = Acute toxicity in male BALB/c mouse assessed effect on edema in kidney at 100 to 130 mg/kg, ip measured after 7 days by H and E staining based analysis; format: organism-based; conditions: in vivo, 168 h, dose 100-130 mg/kg, time 7 day
Staphylococcus aureus [31] = assay: Additive antibacterial activity against Staphylococcus aureus 113 assessed as fractional inhibitory in presence of cephalothin by checker board assay; format: functional
Klebsiella pneumoniae [32] = assay: Induction of morphological changes in Klebsiella pneumoniae assessed as cell contraction at 2 times MIC measured after 120 mins by SEM analysis; format: functional, organism-based
Staphylococcus aureus [33] = assay: Antibacterial activity against methicillin resistant Staphylococcus aureus infected in male BALB/c mouse model of skin wound infection assessed as healthy development of hair follicles at 2 mg/kg, ip measured after 10 days post infection; format: functional, organism-based; conditions: time 10.0 day
Staphylococcus aureus [34] = assay: Additive antibacterial activity against methicillin-resistant Staphylococcus aureus 113 assessed as fractional inhibitory in presence of polymyxin B by checker board assay; format: functional
Cell membrane [35] = assay: Induction of outer membrane permeabilization in Escherichia coli assessed as increase in fluorescence intensity measured for 10 mins by fluorescence based NPN uptake assay
Pseudomonas aeruginosa = assay: Antibacterial activity against Pseudomonas aeruginosa 124 assessed as reduction in bacterial growth incubated for 18 to 24 hrs by broth microdilution method; format: functional; conditions: time 18-24 hrs
Staphylococcus aureus [36] = assay: Antibacterial activity against Staphylococcus aureus assessed as reduction in survival bacterial growth by measuring fold change in presence of FeCl3 measured after 18 to 24 hrs; format: functional; conditions: time 18-24 hrs
Staphylococcus aureus [37] = assay: Antibacterial activity against Staphylococcus aureus assessed as reduction in survival bacterial growth in presence of <=0.2 ug/ml trypsin measured after1 hr by absorbance based analysis; format: functional, organism-based; conditions: time 1.0 hrs
[38] = Acute toxicity in male BALB/c mouse assessed inflammatory cell infiltration in liver at 100 to 130 mg/kg, ip measured after 7 days by H and E staining based analysis; format: organism-based; conditions: in vivo, 168 h, dose 100-130 mg/kg, time 7 day

Row | SMILES | Activity (Staphylococcus aureus [1]) | Activity (Staphylococcus aureus [2]) | fold change (FC) (Escherichia coli [4]) | MIC (Klebsiella pneumoniae [5]) [µM] | Activity (Klebsiella pneumoniae [6]) | MIC (Acinetobacter baumannii) [µM] | Activity (Staphylococcus aureus [7]) | Activity (Staphylococcus aureus [8]) | Activity (Cell membrane [9]) | Retention_time [10] [min] | Activity (Staphylococcus aureus [11]) | Activity (Staphylococcus aureus [12]) | Activity (Klebsiella pneumoniae [13]) | MIC (Escherichia coli [14]) [µM] | Activity (Escherichia coli [15]) | Activity (Klebsiella pneumoniae [16]) | fractional inhibitory concentration index (FICI) (Staphylococcus aureus [17]) | Activity (Staphylococcus aureus [18]) | Activity (Escherichia coli [19]) | Activity (Klebsiella pneumoniae [20]) | further results
1 | CCCCCCCCCCCC(=O)N[C@@H](CCCCN)C(=O)N[C@@H](CCCCN)C(=O)N[C@@H](Cc1c[nH]c2ccccc12)C(=O)N[C@@H](Cc1c[nH]c2ccccc12)C(N)=O (Lauroyl-KKWW-NH2) | Active | Active | 2 | 16 (≈ 13.2 µg/mL) | Active; Compound Showed More Pronounced Effect Compared To 30 Mins Incubation Time | 16 (≈ 13.2 µg/mL) | Active | Active | Active; Compound Showed Pronounced Effect Than Quality Control Polymyxin B | 19.718 | Active | Active | Active; Compound Showed More Pronounced Effect Compared To 30 Mins Incubation Time | 8 | Active | Active | 0.75 | Active | Active | Active | MIC (Staphylococcus aureus [3]): 4 µM; Activity (Klebsiella pneumoniae [21]): Active; Activity (Escherichia coli [22]): >50%; Activity (Klebsiella pneumoniae [23]): Active; MIC (Staphylococcus aureus [24]): 4 µM (≈ 3.31 µg/mL); Activity (Staphylococcus aureus [25]): <20%; Activity (Cell membrane [26]): Active; MIC (Bacillus subtilis): 2 µM (≈ 1.66 µg/mL); Activity (Staphylococcus aureus [27]): Active; fractional inhibitory concentration index (FICI) (Staphylococcus aureus [28]): 0.375; half-life [29]: 255 min; Activity [30]: Non-toxic; fractional inhibitory concentration index (FICI) (Staphylococcus aureus [31]): 0.562; Activity (Klebsiella pneumoniae [32]): Active; Compound Showed More Pronounced Effect Compared To 30 Mins Incubation Time; Activity (Staphylococcus aureus [33]): Active; fractional inhibitory concentration index (FICI) (Staphylococcus aureus [34]): 0.625; Activity (Cell membrane [35]): Dose-dependent-effect; MIC (Pseudomonas aeruginosa): 8 µM (≈ 6.62 µg/mL); fold change (FC) (Staphylococcus aureus [36]): 2
2 | CCCCCCCC(=O)NCCCC[C@H](NC(=O)CCCCCCC)C(=O)N[C@@H](CCCCN)C(=O)N[C@@H](CCCCN)C(=O)N[C@@H](Cc1c[nH]c2ccccc12)C(=O)N[C@@H](Cc1c[nH]c2ccccc12)C(N)=O (Octanoyl-K(Octanoyl)KKWW-NH2) | Active | Active | 2 | 16 (≈ 16.4 µg/mL) | Active; Compound Showed More Pronounced Effect Compared To 30 Mins Incubation Time | 16 (≈ 16.4 µg/mL) | Active | Active | Active; Compound Showed Pronounced Effect Than Quality Control Polymyxin B | 19.975 | Active | Active | Active; Compound Showed More Pronounced Effect Compared To 30 Mins Incubation Time | 8 | Active | Active | 0.562 | Active | Active | Active | Activity (Staphylococcus aureus [37]): Active; Activity (Klebsiella pneumoniae [21]): Active; Activity (Escherichia coli [22]): >50%; Activity (Klebsiella pneumoniae [23]): Active; MIC (Staphylococcus aureus [24]): 8 µM (≈ 8.21 µg/mL); Activity (Staphylococcus aureus [25]): <20%; Activity (Cell membrane [26]): Active; MIC (Bacillus subtilis): 8 µM (≈ 8.21 µg/mL); Activity (Staphylococcus aureus [27]): Active; fractional inhibitory concentration index (FICI) (Staphylococcus aureus [28]): 0.375; Activity [38]: Non-toxic; half-life [29]: 378 min; fractional inhibitory concentration index (FICI) (Staphylococcus aureus [31]): 0.562; Activity (Klebsiella pneumoniae [32]): Active; Compound Showed More Pronounced Effect Compared To 30 Mins Incubation Time; Activity (Staphylococcus aureus [33]): Active; Activity (Cell membrane [35]): Dose-dependent-effect; MIC (Pseudomonas aeruginosa): 8 µM (≈ 8.21 µg/mL); fold change (FC) (Staphylococcus aureus [36]): 2
